{"source": "patent US11793782B2", "about": "“Therapeutic agents for neurodegenerative diseases” (priority 2017, dated 2023)", "key": {"[1]": {"system": "Mucolipidosis Type IIIA (MLIIIA) patient fibroblasts", "assay": "Lysosomal volume via LysoTracker, MLIIIA fibroblasts", "assay_type": "cell-based, human", "conditions": "1 mM, 6 days"}, "[2]": {"system": "Hexb−/− mouse (Sandhoff disease model)", "assay": "Bar crossing test, Sandhoff mouse", "assay_type": "in vivo", "conditions": "0.1 g/kg body weight from 3 weeks of age", "source_text": "The bar crossing test is a method for assessing motor function in mice in which the mouse is placed hanging from the centre of a horizontal bar by its front limbs. A wild-type mouse with normal motor function will be able to engage its hind limbs and thereby move to one of the platforms at either end of the bar, and in doing so complete the test. An untreated Sandhoff mouse is able to complete the test up until around 11 weeks of age. After this point motor function and hind-limb mobility/engagement have deteriorated to the point to which the mouse cannot complete the test, and will drop from the bar onto the padded surface below. […] In FIG. 7 B, acetyl-leucine treatment of 0.1 g/kg body weight was provided from 3 weeks of age. The acetyl-leucine treated Sandhoff mice retained the ability to complete the test up to 13 weeks of age (inclusive). Data shown is the mean of 6 mice per group. […]"}, "[3]": {"system": "Tay-Sachs disease patients", "assay": "Case studies, Tay-Sachs disease patients (SARA, SCAFI, MoCA)", "assay_type": "in vivo, human", "source_text": "For example, to evaluate overall neurological status, mDRS, a four-domain scale (ambulation, manipulation, language and swallowing), may be applied. Cerebellar function may be evaluated using SARA, an eight-item clinical rating scale (gait, stance, sitting, speech, fine motor function and taxis; range 0-40, where 0 is the best neurological status and 40 the worst), and SCAFI, comprising the 8-m-Walking-Time (8 MW; performed by having patients walking twice as quickly as possible from one line to another excluding turning), 9-Hole-Peg-Test (9HPT) and the number of “PATA” repetitions over 10 s. Subjective impairment and quality of life may be evaluated using the EQ-5D-5L questionnaire and VAS. To assess ocular motor function, 3-dimensional videooculography (EyeSeeCam) may be used to measure the peak velocity of saccades, gain of smooth pursuit, peak slow phase velocity of gaze-evoked nystagmus (gaze-holding function), peak slow phase velocity of optokinetic nystagmus, and gain of horizontal vestibulo-ocular reflex. To evaluate the cognitive state, WAIS-R or WISC-IV, and MoCA, assessing different cognitive domains, including attention and concentration, executive functions, memory, language, visuoconstructional skills, conceptual thinking, calculations, and orientation with a maximum of 30 points and a cut-off score of 26, may be used. The skilled person will know how to perform these and other such tests.\nBefore treatment was commenced, examination of the patient indicated a Scale for Assessment and Rating of Ataxia (SARA) score of 15.5/40. In addition, results from the patient's Spinocerebellar Ataxia Functional Index (SCAFI) analysis were: • Mean 8-meters Walking Test (8 MW): 21.6 s • MW 9-Hole Pegboard Test Dominant (9HPTD) (right): 48.3 s • MW 9-Hole Pegboard Test Non-Dominant (9HPTND): 44.9 s • MW PATA Word Test: 20 • Montreal Cognitive Assessment (MoCA): 18/30\nThe day following this examination, the patient was started on therapy with acetyl-leucine, at a dose of 3 g per day for the first week, followed by a dose of 5 g per day for the second week onwards.\nThe day of the examination, the patient was started on therapy with acetyl-leucine at a dose of 3 g per day for the first week, followed by a dose of 5 g per day for the second week onwards.\nThe patient was started on therapy with acetyl-leucine at a dose of 1.5 g per day for the first week, followed by a dose of 3 g per day for the second week onwards."}}, "data": [{"molecule": "CC(=O)NC(CC(C)C)C(=O)O", "note": "(racemic) [acetyl-DL-leucine]", "values": [{"measurement": "LysoTracker fluorescence relative to untreated disease fibroblasts", "setting": "[1]", "value": "trend in reducing LysoTracker fluorescence"}, {"measurement": "Age up to which ability to complete the bar crossing test was retained", "setting": "[2]; Sandhoff mice, untreated around 11 weeks", "value": "up to 13 weeks of age"}, {"measurement": "Motor function in bar-crossing test", "setting": "[2]; Sandhoff mouse model", "value": "improved motor function and hind-limb mobility/engagement"}, {"measurement": "Overall symptoms", "setting": "[3]; Tay-Sachs Patient 1", "value": "improvement in symptoms"}, {"measurement": "SARA", "setting": "[3]; Tay-Sachs Patient 1, 5 g per day, after 4 months, baseline 15.5/40", "value": "17/40"}, {"measurement": "MoCA", "setting": "[3]; Tay-Sachs Patient 1, after 4 months, baseline 18/30", "value": "22/30"}, {"measurement": "PATA", "setting": "[3]; Tay-Sachs Patient 1, after 4 months, baseline 20", "value": 21}, {"measurement": "8MWT", "setting": "[3]; Tay-Sachs Patient 1, after 4 months, baseline 21.6 sec", "value": 25.49, "unit": "s"}, {"measurement": "9HPTND", "setting": "[3]; Tay-Sachs Patient 1, after 4 months, baseline 44.9 sec", "value": 47.09, "unit": "s"}, {"measurement": "9HPTD", "setting": "[3]; Tay-Sachs Patient 1, after 4 months, baseline 48.3 sec", "value": 48.67, "unit": "s"}, {"measurement": "Clinical observation", "setting": "[3]; Tay-Sachs Patient 1, after four months", "value": "stable condition with slightly improved cognitive function but had deterioration of stance, gait and fine motor function"}, {"measurement": "Clinical observation", "setting": "[3]; Tay-Sachs Patient 1, after one month", "value": "improved fine motor skills and reduced hand tremor"}, {"measurement": "MoCA", "setting": "[3]; Tay-Sachs Patient 1, after one month, baseline 18/30", "value": "21/30"}, {"measurement": "PATA", "setting": "[3]; Tay-Sachs Patient 1, after one month, baseline 20", "value": 22}, {"measurement": "8MWT", "setting": "[3]; Tay-Sachs Patient 1, after one month, baseline 21.6 sec", "value": 7, "unit": "s"}, {"measurement": "9HPTND", "setting": "[3]; Tay-Sachs Patient 1, after one month, baseline 44.9 sec", "value": 40.1, "unit": "s"}, {"measurement": "9HPTD", "setting": "[3]; Tay-Sachs Patient 1, after one month, baseline 48.3 sec", "value": 45.9, "unit": "s"}, {"measurement": "SARA", "setting": "[3]; Tay-Sachs Patient 2, 5 g per day, after one month, baseline 10.5/40", "value": "5/40"}, {"measurement": "Clinical observation", "setting": "[3]; Tay-Sachs Patient 2, after one month", "value": "increased enunciation, improved postural stability, and enhanced cognitive function"}, {"measurement": "8MWT", "setting": "[3]; Tay-Sachs Patient 2, after one month, baseline 12.5 sec", "value": 9.55, "unit": "s"}, {"measurement": "PATA", "setting": "[3]; Tay-Sachs Patient 2, after one month, baseline 18", "value": 17}, {"measurement": "MoCA", "setting": "[3]; Tay-Sachs Patient 2, after one month, baseline 21/30", "value": "25/30"}, {"measurement": "9HPTD", "setting": "[3]; Tay-Sachs Patient 2, after one month, baseline 21.5 sec", "value": 34.97, "unit": "s"}, {"measurement": "9HPTND", "setting": "[3]; Tay-Sachs Patient 2, after one month, baseline 35.5 sec", "value": 39.34, "unit": "s"}, {"measurement": "SARA", "setting": "[3]; Tay-Sachs Patient 3, 3 g per day, after one month, baseline 36/40", "value": "33/40"}, {"measurement": "Clinical observation", "setting": "[3]; Tay-Sachs Patient 3, after one month", "value": "increased fine motor skills"}, {"measurement": "mRDS", "setting": "[3]; Tay-Sachs Patient 3, after one month, baseline 18/24", "value": "16/24"}, {"measurement": "EQ-5D-5L visual scale", "setting": "[3]; Tay-Sachs Patient 3, after one month, baseline 50", "value": 60}, {"measurement": "8MWT", "setting": "[3]; Tay-Sachs Patient 3, after one month, with support of one arm, baseline 18.1 (only with strong support)", "value": "11.75 (with support"}]}]}
